In ChEMBL document CHEMBL2169792, “Synthesis of new 4-thiazolidinone-, pyrazoline-, and isatin-based conjugates with promising antitumor activity” (J Med Chem, 2012):

Key:
[1] = system: HCT-15; assay: Cytotoxicity against human HCT15 cells after 48 hrs by SRB assay; assay type: functional; conditions: HCT-15, 48 h
[2] = system: OVCAR-4; assay: Cytotoxicity against human OVCAR4 cells after 48 hrs by SRB assay; assay type: functional; conditions: OVCAR-4, 48 h
[3] = system: OVCAR-5; assay: Cytotoxicity against human OVCAR5 cells after 48 hrs by SRB assay; assay type: functional; conditions: OVCAR-5, 48 h
[4] = system: NCI-H460; assay: Cytotoxicity against human NCI-H460 cells after 48 hrs by SRB assay; assay type: functional; conditions: NCI-H460, 48 h
[5] = system: HOP-92; assay: Cytotoxicity against human HOP92 cells after 48 hrs by SRB assay; assay type: functional; conditions: HOP-92, 48 h
[6] = system: COLO 205; assay: Cytotoxicity against human COLO205 cells after 48 hrs by SRB assay; assay type: functional; conditions: COLO 205, 48 h
[7] = system: T47D; assay: Cytotoxicity against human T47D cells after 48 hrs by SRB assay; assay type: functional
[8] = system: SF-295; assay: Cytotoxicity against human SF295 cells after 48 hrs by SRB assay; assay type: functional; conditions: SF-295, 48 h
[9] = system: ACHN; assay: Cytotoxicity against human ACHN cells after 48 hrs by SRB assay; assay type: functional
[10] = system: MDA-MB-435; assay: Cytotoxicity against human MDA-MB-435 cells after 48 hrs by SRB assay; assay type: functional; conditions: MDA-MB-435, 48 h
[11] = system: RPMI-8226; assay: Cytotoxicity against human RPMI8226 cells after 48 hrs by SRB assay; assay type: functional; conditions: RPMI-8226, 48 h
[12] = system: HCT-116; assay: Cytotoxicity against human HCT116 cells after 48 hrs by SRB assay; assay type: functional; conditions: HCT-116, 48 h
[13] = Toxicity in mouse; assay type: organism-based; conditions: in vivo
[14] = system: Hs-578T; assay: Cytotoxicity against human Hs578T cells after 48 hrs by SRB assay; assay type: functional
[15] = system: CCRF-CEM; assay: Cytotoxicity against human CCRF-CEM cells after 48 hrs by SRB assay; assay type: functional
[16] = Cytotoxicity against human CNS cancer cells after 48 hrs by SRB assay; assay type: functional; conditions: Cancer cell lines
[17] = system: CAKI-1; assay: Cytotoxicity against human CAKI-1 cells after 48 hrs by SRB assay; assay type: functional; conditions: CAKI-1, 48 h
[18] = Cytotoxicity against human ovarian cancer cells after 48 hrs by SRB assay; assay type: functional; conditions: Cancer cell lines
[19] = system: SR; assay: Cytotoxicity against human SR cells after 48 hrs by SRB assay; assay type: functional
[20] = system: SK-MEL-5; assay: Cytotoxicity against human SK-MEL-5 cells after 48 hrs by SRB assay; assay type: functional; conditions: SK-MEL-5, 48 h, read-out: LC50 (the source's name)
[21] = system: IGROV-1; assay: Cytotoxicity against human IGROV1 cells after 48 hrs by SRB assay; assay type: functional; conditions: IGROV-1, 48 h
[22] = system: K562; assay: Cytotoxicity against human K562 cells after 48 hrs by SRB assay; assay type: functional; conditions: K562, 48 h
[23] = system: RXF 393; assay: Cytotoxicity against human RXF393 cells after 48 hrs by SRB assay; assay type: functional; conditions: RXF 393, 48 h
[24] = system: MDA-MB-468; assay: Cytotoxicity against human MDA-MB-468 cells after 48 hrs by SRB assay; assay type: functional; conditions: MDA-MB-468, 48 h
[25] = system: A549; assay: Cytotoxicity against human A549 cells after 48 hrs by SRB assay; assay type: functional; conditions: A549, 48 h
[26] = system: TK-10; assay: Cytotoxicity against human TK10 cells after 48 hrs by SRB assay; assay type: functional; conditions: TK-10, 48 h
[27] = system: SF-539; assay: Cytotoxicity against human SF539 cells after 48 hrs by SRB assay; assay type: functional; conditions: SF-539, 48 h
[28] = system: A498; assay: Cytotoxicity against human A498 cells after 48 hrs by SRB assay; assay type: functional; conditions: A498, 48 h
[29] = system: PC-3; assay: Cytotoxicity against human PC3 cells after 48 hrs by SRB assay; assay type: functional; conditions: PC-3, 48 h
[30] = system: LOX IMVI; assay: Cytotoxicity against human LOXIMVI cells after 48 hrs by SRB assay; assay type: functional
[31] = Cytotoxicity against human leukemia cells after 48 hrs by SRB assay; assay type: functional; conditions: Leukemia cell
[32] = system: SN12C; assay: Cytotoxicity against human SN12C cells after 48 hrs by SRB assay; assay type: functional
[33] = system: SNB-19; assay: Cytotoxicity against human SNB19 cells after 48 hrs by SRB assay; assay type: functional; conditions: SNB-19, 48 h
[34] = system: SK-MEL-28; assay: Cytotoxicity against human SK-MEL-28 cells after 48 hrs by SRB assay; assay type: functional; conditions: SK-MEL-28, 48 h
[35] = system: HOP-62; assay: Cytotoxicity against human HOP62 cells after 48 hrs by SRB assay; assay type: functional; conditions: HOP-62, 48 h
[36] = system: UACC-62; assay: Cytotoxicity against human UACC62 cells after 48 hrs by SRB assay; assay type: functional; conditions: UACC-62, 48 h
[37] = read-out: LC50 (the source's name)

## COc1ccc(C2CC(c3ccc4ccccc4c3)=NN2C2=NC(=O)/C(=C3\C(=O)Nc4ccc(Br)cc43)S2)cc1 (stereo not drawn)
[1]
  GI50: 62.9 nM
  TGI: 325 nM
[1]; [37]
  CC50: > 2450 nM
[2]
  GI50: 32.6 nM
  TGI: > 111 nM
[2]; [37]
  CC50: > 100 µM
[3]
  GI50: 33.6 nM
  TGI: 131 nM
[3]; [37]
  CC50: 2110 nM
[4]
  GI50: 33.1 nM
  TGI: 112 nM
[4]; [37]
  CC50: 5.45 µM
[5]
  GI50: < 10 nM
  TGI: 24.2 nM
[5]; [37]
  CC50: 1470 nM
[6]
  GI50: 21 nM
  TGI: 42 nM
[6]; [37]
  CC50: > 84.1 nM
[7]
  GI50: 23.6 nM
  TGI: 61 nM
[8]
  GI50: 26.5 nM
  TGI: 78.6 nM
[8]; [37]
  CC50: 1170 nM
[9]
  GI50: 26.7 nM
  TGI: 64.6 nM
[9]; [37]
  CC50: > 32.3 µM
[10]
  GI50: 31.8 nM
  TGI: 106 nM
[10]; [37]
  CC50: 2440 nM
[11]
  GI50: 214 nM
  TGI: 1400 nM
[11]; [37]
  CC50: > 42.2 µM
[12]
  GI50: 18 nM
  TGI: 33.5 nM
[12]; [37]
  CC50: > 62.4 nM
[13]
  MTD: > 400 mg/kg
[14]
  GI50: 64.4 nM
  TGI: > 1030 nM
[14]; [37]
  CC50: > 100 µM
[15]
  GI50: 32.9 nM
  TGI: 483 nM
[15]; [37]
  CC50: > 100 µM
[16]
  GI50: 46 nM
  LC50 (concentration giving 50% net cell kill): 3.42 µM
  TGI: 210 nM
[17]
  GI50: 96.5 nM
  TGI: 608 nM
[17]; [37]
  CC50: > 100 µM
[18]
  GI50: 110 nM
  LC50 (concentration causing 50% net cell kill): 18.8 µM
  TGI: 850 nM
[19]
  GI50: 28.9 nM
  TGI: 130 nM
[19]; [37]
  CC50: > 100 µM
[20]
  CC50: 341 nM
[21]
  GI50: 49.8 nM
  TGI: 451 nM
[21]; [37]
  CC50: > 100 µM
[22]
  GI50: 37 nM
  TGI: > 12.4 µM
[22]; [37]
  CC50: > 100 µM
[23]
  GI50: 19.7 nM
  TGI: 40.3 nM
[23]; [37]
  CC50: 82.2 nM
[24]
  GI50: 22.3 nM
  TGI: 62.2 nM
[24]; [37]
  CC50: 190 nM
[25]
  GI50: 24.7 nM
  TGI: 69.5 nM
[25]; [37]
  CC50: 25.7 µM
[26]
  GI50: 170 nM
  TGI: 522 nM
[26]; [37]
  CC50: > 100 µM
[27]
  GI50: 23.1 nM
  TGI: 54.2 nM
[27]; [37]
  CC50: 296 nM
[28]
  GI50: 25.1 nM
  TGI: 78.6 nM
[28]; [37]
  CC50: 316 nM
[29]
  GI50: 26 nM
  TGI: 82.7 nM
[29]; [37]
  CC50: 5.46 µM
[30]
  GI50: 24.3 nM
  TGI: 58.9 nM
[30]; [37]
  CC50: 249 nM
[31]
  GI50: 130 nM
  TGI: 3.37 µM
[31]; [37]
  CC50: 87.8 µM
[32]
  GI50: 43.4 nM
  TGI: 223 nM
[32]; [37]
  CC50: 1700 nM
[33]
  GI50: 38.5 nM
  TGI: 411 nM
[33]; [37]
  CC50: 8.98 µM
[34]
  GI50: 21.8 nM
  TGI: 51.5 nM
[34]; [37]
  CC50: > 205 nM
[35]
  GI50: 22 nM
  TGI: 49.8 nM
[35]; [37]
  CC50: > 157 nM
[36]
  GI50: 54.7 nM
  TGI: 261 nM
[36]; [37]
  CC50: 1190 nM
